Results reported in PubChem BioAssay (NCI).
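All cell lines were grown in 96-well plates and treated with compound for 48 hours. Abbreviation: GI50, concentration required for 50% inhibition of growth. TGI: total growth inhibition.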

Assays:
Test in all cases: NCI-60 cell line screen, 48 h; in the data active = GI50 below about 0.43 µM; inactive = the rest
T-47D breast = system: T-47D breast
HS 578T breast = system: HS 578T breast
SW-620 colon = system: SW-620 colon
COLO 205 colon = system: COLO 205 colon
HOP-62 NSCLC = system: HOP-62 NSCLC
SN12C renal = system: SN12C renal
UACC-62 melanoma = system: UACC-62 melanoma
NCI-H226 lung = system: NCI-H226 lung
SK-MEL-5 melanoma = system: SK-MEL-5 melanoma
OVCAR-3 ovarian = system: OVCAR-3 ovarian
SK-OV-3 ovarian = system: SK-OV-3 ovarian
SK-MEL-28 melanoma = system: SK-MEL-28 melanoma
SF-295 CNS = system: SF-295 CNS
K-562 leukemia = system: K-562 leukemia
HCC-2998 colon = system: HCC-2998 colon
SNB-75 CNS = system: SNB-75 CNS
OVCAR-5 ovarian = system: OVCAR-5 ovarian
HT29 colon = system: HT29 colon
MCF7 breast = system: MCF7 breast
U251 CNS = system: U251 CNS
SR leukemia = system: SR leukemia
M14 melanoma = system: M14 melanoma
SK-MEL-2 melanoma = system: SK-MEL-2 melanoma
NCI-H23 lung = system: NCI-H23 lung
NCI/ADR-RES ovarian = system: NCI/ADR-RES ovarian
IGROV1 ovarian = system: IGROV1 ovarian
A549 NSCLC = system: A549 NSCLC
TK-10 renal = system: TK-10 renal
NCI-H460 lung = system: NCI-H460 lung
HOP-92 NSCLC = system: HOP-92 NSCLC
NCI-H522 lung = system: NCI-H522 lung
786-0 renal = system: 786-0 renal
HCT-116 colon = system: HCT-116 colon
MDA-MB-435 = system: MDA-MB-435
SF-539 CNS = system: SF-539 CNS
KM12 colon = system: KM12 colon
RPMI-8226 leukemia = system: RPMI-8226 leukemia
A498 renal = system: A498 renal
MOLT-4 leukemia = system: MOLT-4 leukemia
OVCAR-4 ovarian = system: OVCAR-4 ovarian
ACHN renal = system: ACHN renal
CAKI-1 renal = system: CAKI-1 renal
MALME-3M melanoma = system: MALME-3M melanoma
SF-268 CNS = system: SF-268 CNS
SNB-19 CNS = system: SNB-19 CNS
PC-3 prostate = system: PC-3 prostate
HL-60(TB) leukemia = system: HL-60(TB) leukemia
HCT-15 colon = system: HCT-15 colon
UO-31 renal = system: UO-31 renal
LOX IMVI melanoma = system: LOX IMVI melanoma
CCRF-CEM leukemia = system: CCRF-CEM leukemia
MDA-MB-231 breast = system: MDA-MB-231 breast
EKVX NSCLC = system: EKVX NSCLC
RXF 393 renal = system: RXF 393 renal
OVCAR-8 ovarian = system: OVCAR-8 ovarian
DU-145 prostate = system: DU-145 prostate
UACC-257 melanoma = system: UACC-257 melanoma
BT-549 breast = system: BT-549 breast

COc1cc(-n2cc(-c3ccccc3)[nH]c2=O)cc(OC)c1OC
89.7 µM: TGI (SF-268 CNS)
52.8 µM: TGI (OVCAR-4 ovarian)
85.4 µM: TGI (HS 578T breast)
> 100 µM: TGI (T-47D breast) | TGI (SW-620 colon) | TGI (COLO 205 colon) | TGI (HOP-62 NSCLC) | TGI (SN12C renal) | TGI (UACC-62 melanoma) | TGI (NCI-H226 lung) | TGI (SK-MEL-5 melanoma) | TGI (OVCAR-3 ovarian) | TGI (SK-OV-3 ovarian) | TGI (SK-MEL-28 melanoma) | TGI (SF-295 CNS) | TGI (K-562 leukemia) | TGI (HCC-2998 colon) | TGI (OVCAR-5 ovarian) | TGI (HT29 colon) | TGI (MCF7 breast) | TGI (U251 CNS) | TGI (SR leukemia) | TGI (M14 melanoma) | TGI (SK-MEL-2 melanoma) | TGI (NCI-H23 lung) | TGI (NCI/ADR-RES ovarian) | TGI (IGROV1 ovarian) | TGI (A549 NSCLC) | TGI (TK-10 renal) | TGI (NCI-H460 lung) | TGI (NCI-H522 lung) | TGI (HCT-116 colon) | TGI (MDA-MB-435) | TGI (KM12 colon) | TGI (RPMI-8226 leukemia) | TGI (A498 renal) | TGI (MOLT-4 leukemia) | TGI (ACHN renal) | TGI (CAKI-1 renal) | TGI (MALME-3M melanoma) | TGI (SNB-19 CNS) | TGI (PC-3 prostate) | TGI (HL-60(TB) leukemia) | TGI (HCT-15 colon) | TGI (UO-31 renal) | TGI (LOX IMVI melanoma) | TGI (CCRF-CEM leukemia) | TGI (MDA-MB-231 breast) | TGI (EKVX NSCLC)
inactive: GI50 (T-47D breast) 30.5 µM | GI50 (HS 578T breast) 29.8 µM | GI50 (SW-620 colon) > 100 µM | GI50 (COLO 205 colon) > 100 µM | GI50 (HOP-62 NSCLC) 39.1 µM | GI50 (SN12C renal) 47.6 µM | GI50 (UACC-62 melanoma) 36.9 µM | GI50 (NCI-H226 lung) 57.4 µM | GI50 (SK-MEL-5 melanoma) 39.4 µM | GI50 (OVCAR-3 ovarian) 23.2 µM | GI50 (SK-OV-3 ovarian) 34.3 µM | GI50 (SK-MEL-28 melanoma) 31.4 µM | GI50 (SF-295 CNS) 37.8 µM | GI50 (K-562 leukemia) 83.9 µM | GI50 (HCC-2998 colon) > 100 µM | GI50 (SNB-75 CNS) 13.9 µM | GI50 (OVCAR-5 ovarian) > 100 µM | GI50 (HT29 colon) > 100 µM | GI50 (MCF7 breast) 44.9 µM | GI50 (U251 CNS) 41.3 µM | GI50 (SR leukemia) > 100 µM | GI50 (M14 melanoma) > 100 µM | GI50 (SK-MEL-2 melanoma) > 100 µM | GI50 (NCI-H23 lung) > 100 µM | GI50 (NCI/ADR-RES ovarian) 33 µM | GI50 (IGROV1 ovarian) > 100 µM | GI50 (A549 NSCLC) 38.9 µM | GI50 (TK-10 renal) 39.6 µM | GI50 (NCI-H460 lung) 52.2 µM | GI50 (HOP-92 NSCLC) 20.6 µM | GI50 (NCI-H522 lung) 27.2 µM | GI50 (786-0 renal) 23.7 µM | GI50 (HCT-116 colon) 58.1 µM | GI50 (MDA-MB-435) 76.3 µM | GI50 (SF-539 CNS) 21.5 µM | GI50 (KM12 colon) > 100 µM | GI50 (RPMI-8226 leukemia) > 100 µM | GI50 (A498 renal) 35.1 µM | GI50 (MOLT-4 leukemia) > 100 µM | GI50 (OVCAR-4 ovarian) 17.1 µM | GI50 (ACHN renal) 45.5 µM | GI50 (CAKI-1 renal) 37.8 µM | GI50 (MALME-3M melanoma) 33.7 µM | GI50 (SF-268 CNS) 28.5 µM | GI50 (SNB-19 CNS) 30.9 µM | GI50 (PC-3 prostate) 40 µM | GI50 (HL-60(TB) leukemia) 60.3 µM | GI50 (HCT-15 colon) 85.2 µM | GI50 (UO-31 renal) 37.9 µM | GI50 (LOX IMVI melanoma) > 100 µM | GI50 (CCRF-CEM leukemia) > 100 µM | GI50 (MDA-MB-231 breast) 37.2 µM | GI50 (EKVX NSCLC) 25.4 µM
83.1 µM: TGI (HOP-92 NSCLC)
34 µM: TGI (SNB-75 CNS)
91.1 µM: TGI (786-0 renal)
63.8 µM: TGI (SF-539 CNS)

CNC(=O)c1cc(Oc2cccc3nc(NC(=O)Nc4cc(C(F)(F)F)cc(C(F)(F)F)c4)ccc23)ccn1
38.2 µM: TGI (PC-3 prostate)
25.6 µM: TGI (SK-MEL-2 melanoma)
12.9 µM: TGI (MALME-3M melanoma)
10.4 µM: TGI (HOP-62 NSCLC)
6.27 µM: TGI (U251 CNS) | TGI (HOP-92 NSCLC)
41.8 µM: TGI (HCT-116 colon)
42.7 µM: TGI (NCI-H23 lung)
57.3 µM: TGI (CAKI-1 renal)
37.9 µM: TGI (SF-539 CNS)
38 µM: TGI (SNB-19 CNS)
10.1 µM: TGI (SK-OV-3 ovarian)
5.73 µM: TGI (786-0 renal)
77.2 µM: TGI (HL-60(TB) leukemia)
> 100 µM: TGI (SW-620 colon) | TGI (SN12C renal) | TGI (SK-MEL-28 melanoma) | TGI (K-562 leukemia) | TGI (HCC-2998 colon) | TGI (OVCAR-5 ovarian) | TGI (HT29 colon) | TGI (SR leukemia) | TGI (A549 NSCLC) | TGI (MDA-MB-435) | TGI (KM12 colon) | TGI (MOLT-4 leukemia) | TGI (HCT-15 colon) | TGI (CCRF-CEM leukemia)
22.5 µM: TGI (UACC-62 melanoma)
29.5 µM: TGI (LOX IMVI melanoma)
21.3 µM: TGI (OVCAR-3 ovarian)
15.2 µM: TGI (SF-295 CNS)
55.6 µM: TGI (BT-549 breast)
40.5 µM: TGI (UO-31 renal)
inactive: GI50 (RXF 393 renal) 3.03 µM | GI50 (T-47D breast) 4.13 µM | GI50 (HS 578T breast) 2.57 µM | GI50 (SW-620 colon) 16.9 µM | GI50 (COLO 205 colon) 10.8 µM | GI50 (HOP-62 NSCLC) 3.37 µM | GI50 (SN12C renal) 5.27 µM | GI50 (UACC-62 melanoma) 3.56 µM | GI50 (OVCAR-8 ovarian) 5.09 µM | GI50 (NCI-H226 lung) 4.21 µM | GI50 (SK-MEL-5 melanoma) 6.2 µM | GI50 (OVCAR-3 ovarian) 4.07 µM | GI50 (DU-145 prostate) 6.29 µM | GI50 (SK-OV-3 ovarian) 2.99 µM | GI50 (SK-MEL-28 melanoma) 4.67 µM | GI50 (SF-295 CNS) 3.69 µM | GI50 (K-562 leukemia) 9.29 µM | GI50 (HCC-2998 colon) 15.5 µM | GI50 (SNB-75 CNS) 2.38 µM | GI50 (OVCAR-5 ovarian) 13.3 µM | GI50 (HT29 colon) 3.51 µM | GI50 (MCF7 breast) 7.43 µM | GI50 (U251 CNS) 2.47 µM | GI50 (SR leukemia) 13 µM | GI50 (M14 melanoma) 10.2 µM | GI50 (SK-MEL-2 melanoma) 12.7 µM | GI50 (NCI-H23 lung) 6.15 µM | GI50 (NCI/ADR-RES ovarian) 5.62 µM | GI50 (A549 NSCLC) 4.54 µM | GI50 (TK-10 renal) 3.22 µM | GI50 (NCI-H460 lung) 4.16 µM | GI50 (HOP-92 NSCLC) 2.5 µM | GI50 (NCI-H522 lung) 6.65 µM | GI50 (786-0 renal) 2.41 µM | GI50 (HCT-116 colon) 13.8 µM | GI50 (MDA-MB-435) 4.7 µM | GI50 (SF-539 CNS) 6.68 µM | GI50 (KM12 colon) 15.2 µM | GI50 (A498 renal) 1.99 µM | GI50 (MOLT-4 leukemia) 35.9 µM | GI50 (UACC-257 melanoma) 13.2 µM | GI50 (OVCAR-4 ovarian) 2.37 µM | GI50 (ACHN renal) 3.8 µM | GI50 (CAKI-1 renal) 10.1 µM | GI50 (MALME-3M melanoma) 2.62 µM | GI50 (SF-268 CNS) 4.93 µM | GI50 (SNB-19 CNS) 5.31 µM | GI50 (PC-3 prostate) 6.06 µM | GI50 (HL-60(TB) leukemia) 23.4 µM | GI50 (HCT-15 colon) 18.1 µM | GI50 (UO-31 renal) 4.91 µM | GI50 (LOX IMVI melanoma) 3.26 µM | GI50 (CCRF-CEM leukemia) 29.4 µM | GI50 (BT-549 breast) 11.4 µM | GI50 (EKVX NSCLC) 4.46 µM
9.48 µM: TGI (RXF 393 renal)
35.4 µM: TGI (NCI-H522 lung)
26.8 µM: TGI (OVCAR-8 ovarian)
13.5 µM: TGI (HS 578T breast)
7.51 µM: TGI (OVCAR-4 ovarian)
66.6 µM: TGI (MCF7 breast)
36.6 µM: TGI (NCI-H460 lung)
16.4 µM: TGI (ACHN renal)
52 µM: TGI (NCI/ADR-RES ovarian)
11.5 µM: TGI (TK-10 renal)
39.8 µM: TGI (NCI-H226 lung)
31.1 µM: TGI (T-47D breast)
62.8 µM: TGI (M14 melanoma)
44.1 µM: TGI (UACC-257 melanoma)
23.8 µM: TGI (COLO 205 colon)
14.9 µM: TGI (SNB-75 CNS)
5.02 µM: TGI (A498 renal)
86.3 µM: TGI (EKVX NSCLC)
39.4 µM: TGI (SF-268 CNS)
24.2 µM: TGI (SK-MEL-5 melanoma)
65.9 µM: TGI (DU-145 prostate)
